# Laboratory results as given in ChEMBL document CHEMBL1121623, “Thrombin inhibitors. 3. Carboxyl-containing amide derivatives of N alpha-substituted L-arginine” (J Med Chem, 1980).
# Biological target: T1, Prothrombin (Bos taurus, UniProt P00735)
# Assay: (§1) Concentration at which the clotting time was prolonged by twice that of the control by inhibiting thrombin
# Type: functional
# Settings: read-out: I50
row,Structure (SMILES),IC50 [nM]
1,COCCN(CC(=O)O)C(=O)C(CCCN=C(N)N)NS(=O)(=O)c1ccc2c(c1)-c1ccccc1C2 (stereo unspecified),400
2,CCC1CCN(C(=O)C(CCCN=C(N)N)NS(=O)(=O)c2ccc3cc(OC)c(OC)cc3c2)C(C(=O)O)C1 (stereo unspecified),250
3,COCCN(CC(=O)O)C(=O)C(CCCN=C(N)N)NS(=O)(=O)c1cccc2c1CCCC2 (stereo unspecified),10000
4,N=C(N)NCCCC(NS(=O)(=O)c1cccc2c1CCCC2)C(=O)N(CC(=O)O)CC1CCCO1 (stereo unspecified),6500
5,COCCN(CC(=O)O)C(=O)C(CCCN=C(N)N)NS(=O)(=O)c1ccc2oc3ccccc3c2c1 (stereo unspecified),350
6,COc1ccc2ccc(S(=O)(=O)NC(CCCN=C(N)N)C(=O)N3CCCCCC3C(=O)O)cc2c1 (stereo unspecified),2500
7,CCCCN(CC(=O)O)C(=O)C(CCCN=C(N)N)NS(=O)(=O)c1cccc2c1CCCC2 (stereo unspecified),20000
8,CCCC1CCN(C(=O)C(CCCN=C(N)N)NS(=O)(=O)c2ccc3cc(OC)c(OC)cc3c2)C(C(=O)O)C1 (stereo unspecified),500
9,COCCN(CC(=O)O)C(=O)C(CCCN=C(N)N)NS(=O)(=O)c1ccc2sc3ccccc3c2c1 (stereo unspecified),450
10,CCCCN(CC(=O)O)C(=O)C(CCCN=C(N)N)NS(=O)(=O)c1ccc2c(c1)CCCC2 (stereo unspecified),60000
11,COCCN(CC(=O)O)C(=O)C(CCCN=C(N)N)NS(=O)(=O)c1ccc2c(c1)OCCO2 (stereo unspecified),32000
12,COCCN(CC(=O)O)C(=O)C(CCCN=C(N)N)NS(=O)(=O)c1ccc2cc3c(cc2c1)OCCO3 (stereo unspecified),57000
13,CCCCN(CC(=O)O)C(=O)C(CCCN=C(N)N)NS(=O)(=O)c1ccc2oc3ccccc3c2c1 (stereo unspecified),300
14,CC1CCN(C(=O)C(CCCN=C(N)N)NS(=O)(=O)c2cccc3c2oc2ccccc23)C(C(=O)O)C1 (stereo unspecified),150
15,COc1cc2ccc(S(=O)(=O)NC(CCCN=C(N)N)C(=O)N3CCc4ccccc4C3C(=O)O)cc2cc1OC (stereo unspecified),700
16,CCCCCN(CC(=O)O)C(=O)C(CCCN=C(N)N)NS(=O)(=O)c1cccc2c1CCCC2 (stereo unspecified),100000
17,CC1CCN(C(=O)C(CCCN=C(N)N)NS(=O)(=O)c2ccc3oc4ccccc4c3c2)C(C(=O)O)C1 (stereo unspecified),100
18,COc1cc2ccc(S(=O)(=O)NC(CCCN=C(N)N)C(=O)N3CCC(c4ccccc4)CC3C(=O)O)cc2cc1OC (stereo unspecified),12000
19,CC1CCN(C(=O)C(CCCN=C(N)N)NS(=O)(=O)c2ccc3c(c2)Sc2ccccc2O3)C(C(=O)O)C1 (stereo unspecified),250
20,COCCN(CC(=O)O)C(=O)C(CCCN=C(N)N)NS(=O)(=O)c1ccc2c(c1)Sc1ccccc1O2 (stereo unspecified),350
21,COc1cc2ccc(S(=O)(=O)NC(CCCN=C(N)N)C(=O)N3Cc4ccccc4C3C(=O)O)cc2cc1OC (stereo unspecified),1500

# Biological target: T1, Prothrombin
# Assay: as §1
# Settings: read-out: I50
row,Structure (SMILES),IC50 [nM]
1,CC1CCN(C(=O)C(CCCN=C(N)N)NS(=O)(=O)c2cccc3c(N(C)C)cccc23)C(C(=O)O)C1 (stereo unspecified),4000
2,COc1ccc2ccc(S(=O)(=O)NC(CCCN=C(N)N)C(=O)N3CCCCC3C(=O)O)cc2c1 (stereo unspecified),5000
3,COc1cc2ccc(S(=O)(=O)NC(CCCN=C(N)N)C(=O)N(C)CC(=O)O)cc2cc1OC (stereo unspecified),> 100000
4,CCCCN(CC(=O)O)C(=O)C(CCCN=C(N)N)NS(=O)(=O)c1ccc2ccc(C)cc2c1 (stereo unspecified),300
5,COc1cc2ccc(S(=O)(=O)NC(CCCN=C(N)N)C(=O)N(CC(=O)O)CC(C)C)cc2cc1OC (stereo unspecified),2000
6,COCCN(CC(=O)O)C(=O)C(CCCN=C(N)N)NS(=O)(=O)c1cccc2c(N(C)C)cccc12 (stereo unspecified),5000
7,Cc1ccc2ccc(S(=O)(=O)NC(CCCN=C(N)N)C(=O)N(CC(=O)O)CC3CCCO3)cc2c1 (stereo unspecified),200
8,CC(C)C1CCN(C(=O)C(CCCN=C(N)N)NS(=O)(=O)c2ccc3cc(Cl)ccc3c2)C(C(=O)O)C1 (stereo unspecified),500
9,COCCN(CC(=O)O)C(=O)C(CCCN=C(N)N)NS(=O)(=O)c1ccc2ccc(OC)cc2c1 (stereo unspecified),500
10,CCOc1cc2ccc(S(=O)(=O)NC(CCCN=C(N)N)C(=O)N(CCOC)CC(=O)O)cc2cc1OCC (stereo unspecified),15000
11,COCCN(CC(=O)O)C(=O)C(CCCN=C(N)N)NS(=O)(=O)c1cccc2cc(C)c(C)cc12 (stereo unspecified),10000
12,CC1CCN(C(=O)C(CCCN=C(N)N)NS(=O)(=O)c2cccc3ccccc23)C(C(=O)O)C1 (stereo unspecified),1000
13,COCCN(CC(=O)O)C(=O)C(CCCN=C(N)N)NS(=O)(=O)c1ccc2cc(OC)c(OC)cc2c1 (stereo unspecified),300
14,COc1cc2ccc(S(=O)(=O)NC(CCCN=C(N)N)C(=O)N(CCc3ccccc3)CC(=O)O)cc2cc1OC (stereo unspecified),3000
15,COc1cc2ccc(S(=O)(=O)NC(CCCN=C(N)N)C(=O)N(CC(=O)O)C3CCCCCC3)cc2cc1OC (stereo unspecified),15000
16,CCCN(CC(=O)O)C(=O)C(CCCN=C(N)N)NS(=O)(=O)c1ccc2cc(OC)c(OC)cc2c1 (stereo unspecified),8000
17,CCCCCCCCN(CC(=O)O)C(=O)C(CCCN=C(N)N)NS(=O)(=O)c1ccc2cc(OC)c(OC)cc2c1 (stereo unspecified),> 100000
18,COc1ccc2cc(S(=O)(=O)NC(CCCN=C(N)N)C(=O)N3CCCCC3C(=O)O)ccc2c1 (stereo unspecified),100000
19,COc1cc2ccc(S(=O)(=O)NC(CCCN=C(N)N)C(=O)N(CC(=O)O)Cc3ccccc3)cc2cc1OC (stereo unspecified),2500
20,CCSCCN(CC(=O)O)C(=O)C(CCCN=C(N)N)NS(=O)(=O)c1ccc2cc(OC)c(OC)cc2c1 (stereo unspecified),5000

row,Structure (SMILES),IC50 [nM]
1,COCCN(CCC(=O)O)C(=O)C(CCCN=C(N)N)NS(=O)(=O)c1ccc2cc(OC)c(OC)cc2c1 (stereo unspecified),3700
2,CN(C)c1cccc2c(S(=O)(=O)NC(CCCN=C(N)N)C(=O)N(CC(=O)O)CC3CCCO3)cccc12 (stereo unspecified),2000
3,CCCCN(CC(=O)O)C(=O)C(CCCN=C(N)N)NS(=O)(=O)c1cc(OC)c2cc(OC)ccc2c1 (stereo unspecified),2000
4,CCCCN(CC(=O)O)C(=O)C(CCCN=C(N)N)NS(=O)(=O)c1cccc2c(N(C)C)cccc12 (stereo unspecified),4000
5,COc1cc2ccc(S(=O)(=O)NC(CCCN=C(N)N)C(=O)N(CC(=O)O)C3CCCCC3)cc2cc1OC (stereo unspecified),5000
6,COc1ccc2ccc(S(=O)(=O)NC(CCCN=C(N)N)C(=O)N(CC(=O)O)CC3CCCO3)cc2c1 (stereo unspecified),150
7,COCCCN(CC(=O)O)C(=O)C(CCCN=C(N)N)NS(=O)(=O)c1ccc2cc(OC)c(OC)cc2c1 (stereo unspecified),5000
8,COc1cc2ccc(S(=O)(=O)NC(CCCN=C(N)N)C(=O)N(CC(=O)O)CC3CCCO3)cc2cc1OC (stereo unspecified),200
9,CCC1CCN(C(=O)C(CCCN=C(N)N)NS(=O)(=O)c2ccc3ccc(OC)cc3c2)C(C(=O)O)C1 (stereo unspecified),100
10,CCCCCN(CC(=O)O)C(=O)C(CCCN=C(N)N)NS(=O)(=O)c1ccc2cc(OC)c(OC)cc2c1 (stereo unspecified),1000
11,Cc1ccc2cc(S(=O)(=O)NC(CCCN=C(N)N)C(=O)N3CCC(C(C)C)CC3C(=O)O)ccc2c1 (stereo unspecified),350
12,COc1cc2ccc(S(=O)(=O)NC(CCCN=C(N)N)C(=O)N3CCCC(C(=O)O)C3)cc2cc1OC (stereo unspecified),40000
13,CC1CCN(C(=O)C(CCCN=C(N)N)NS(=O)(=O)c2cccc3c2CCCC3)C(C(=O)O)C1 (stereo unspecified),600
14,COCCN(CC(=O)O)C(=O)C(CCCN=C(N)N)NS(=O)(=O)c1cc(OC)c2cc(OC)ccc2c1 (stereo unspecified),4000
15,Cc1cc2ccc(S(=O)(=O)NC(CCCN=C(N)N)C(=O)N(CC(=O)O)CC3CCCO3)cc2cc1C (stereo unspecified),3000
16,Cc1ccc2ccc(S(=O)(=O)NC(CCCN=C(N)N)C(=O)N3CCC(C)CC3C(=O)O)cc2c1 (stereo unspecified),150
17,CCCCCCN(CC(=O)O)C(=O)C(CCCN=C(N)N)NS(=O)(=O)c1ccc2cc(OC)c(OC)cc2c1 (stereo unspecified),150
18,COCCN(CC(=O)O)C(=O)C(CCCN=C(N)N)NS(=O)(=O)c1ccc2ccc(C)cc2c1 (stereo unspecified),350
19,COc1ccc2ccc(S(=O)(=O)NC(CCCN=C(N)N)C(=O)N3CCC(C(C)C)CC3C(=O)O)cc2c1 (stereo unspecified),150
20,N=C(N)NCCCC(NS(=O)(=O)c1cccc2ccccc12)C(=O)N(CC(=O)O)CC1CCCO1 (stereo unspecified),30000

row,Structure (SMILES),IC50 [nM]
1,COCCN(CC(=O)O)C(=O)C(CCCN=C(N)N)NS(=O)(=O)c1cccc2c(OC)cccc12 (stereo unspecified),2500
2,CC1CCN(C(=O)C(CCCN=C(N)N)NS(=O)(=O)c2ccc3c(c2)-c2ccccc2C3)C(C(=O)O)C1 (stereo unspecified),100
3,CCCCN(CC(=O)O)C(=O)C(CCCN=C(N)N)NS(=O)(=O)c1cccc2c(OC)cccc12 (stereo unspecified),4000
4,COc1ccc2cc(S(=O)(=O)NC(CCCN=C(N)N)C(=O)N3CCC(C)CC3C(=O)O)cc(OC)c2c1 (stereo unspecified),340
5,COc1cc2ccc(S(=O)(=O)NC(CCCN=C(N)N)C(=O)N3CCC(C)CC3C(=O)O)cc2cc1OC (stereo unspecified),400
6,CCCCN(CC(=O)O)C(=O)C(CCCN=C(N)N)NS(=O)(=O)c1ccc2ccccc2c1 (stereo unspecified),> 100000
7,CCCCN(CC(=O)O)C(=O)C(CCCN=C(N)N)NS(=O)(=O)c1ccc2cc(OC)ccc2c1 (stereo unspecified),500
8,CC(C)C1CCN(C(=O)C(CCCN=C(N)N)NS(=O)(=O)c2ccc3ccccc3c2)C(C(=O)O)C1 (stereo unspecified),50000
9,CCCCN(CC(=O)O)C(=O)C(CCCN=C(N)N)NS(=O)(=O)c1ccc2ccc(OC)cc2c1 (stereo unspecified),500
10,COc1cc2ccc(S(=O)(=O)NC(CCCN=C(N)N)C(=O)N3CCC(C(=O)O)CC3)cc2cc1OC (stereo unspecified),150000
11,CCOc1cc2ccc(S(=O)(=O)NC(CCCN=C(N)N)C(=O)N3CCC(C)CC3C(=O)O)cc2cc1OCC (stereo unspecified),4000
12,CCCCN(CC(=O)O)C(=O)C(CCCN=C(N)N)NS(=O)(=O)c1ccc2cc(OC)c(OC)cc2c1 (stereo unspecified),300
13,COCCN(CCCC(=O)O)C(=O)C(CCCN=C(N)N)NS(=O)(=O)c1ccc2cc(OC)c(OC)cc2c1 (stereo unspecified),40000
14,COCCN(CC(=O)O)C(=O)C(CCCN=C(N)N)NS(=O)(=O)c1cccc2ccccc12 (stereo unspecified),30000
15,COc1cc2ccc(S(=O)(=O)NC(CCCN=C(N)N)C(=O)N3C(C(=O)O)CCCC3C(=O)O)cc2cc1OC (stereo unspecified),> 100000
16,COc1ccc2ccc(S(=O)(=O)NC(CCCN=C(N)N)C(=O)N3CCC(C)CC3C(=O)O)cc2c1 (stereo unspecified),150
17,COCCN(C(=O)C(CCCN=C(N)N)NS(=O)(=O)c1ccc2cc(OC)c(OC)cc2c1)C(C)C(=O)O (stereo unspecified),5000
18,COc1cc2ccc(S(=O)(=O)NC(CCCN=C(N)N)C(=O)N3CCCCC3C(=O)O)cc2cc1OC (stereo unspecified),4500
19,COc1cc2ccc(S(=O)(=O)NC(CCCN=C(N)N)C(=O)N(CC(=O)O)CC3CCCCC3)cc2cc1OC (stereo unspecified),15000
20,Cc1ccc2ccc(S(=O)(=O)NC(CCCN=C(N)N)C(=O)N3CCC(C(C)C)CC3C(=O)O)cc2c1 (stereo unspecified),100
